The test system of experiment [1] is human HepG2 cells. As to the kind of experiment: Intracellular calcium dynamics with Fura-2 AM in insulin resistance induced cells. Type of experiment: cell-based. The method, then:
First, human HepG2 cells were cultured in DMEM (Dulbecco's Modified Eagle Medium) supplemented with 10% fetal bovine serum (FBS), 25 mM glucose, 2 mM L-glutamine, 100 U/Ml of penicillin and 100 μg/Ml of streptomycin. At this time, the culture was performed in a 37° C., 5% CO2 incubator. The cultured cells were distributed in a culture plate at the density of 5.0×10^5 cells/well, followed by further culture for overnight. Palmitic acid (PA) was added to the plate at the concentration of 0, 100, 300 or 500 μM, followed by reaction for 24 hours. Then, the concentration of calcium was investigated by using Fluo-3 AM according to the same conditions and procedures as described in Example 1, and the results are shown in FIG. 2A and FIG. 2B. Intracellular calcium dynamics was confirmed in the fatty liver cell model constructed in vitro by inducing insulin resistance. At this time, the experiment was performed by the same manner under the same conditions as described in Example 3 except that Fura-2 AM was used instead of Fluo-3 AM.
(A change in cytosolic calcium serves as a functional read-out for many receptors and channels.)

Experiment [2] has as its system human HepG2 cells. Briefly: Intracellular calcium level with Fluo-3 AM in PA-treated HepG2 cells. The format is cell-based. The settings on record: PA 0, 100, 300 or 500 μM, 24 hours. The protocol:
First, male C57BL/6 mice at 8 weeks (Orient Bio, Korea) were raised in an animal facility of Lee Gil Ya Cancer and Diabetes Institute (Gachon University, Korea). Particularly, the mice were raised in a sterile chamber at the temperature of 23±1° C., with 12 hr/12 hr light/dark cycle, and free dietary environment. At this time, the mice were divided into the fasted group wherein the mice were fasted for 16 hours and the refed group wherein the mice were fasted for 16 hours and then fed for 4 hours. Each group was sub-divided into the high fat diet group (HFD) and the normal diet group (chow). The high fat diet group (HFD) mice were fed with diet containing 60% fat, while the normal diet group (chow) mice were fed with diet containing 10% fat. 8 weeks later, the mice were anesthetized and the liver was perfused by using buffer 1 (142 mM NaCl, 6.7 mM KCl, 10 mM HEPES and 2.5 mM EGTA, pH 7.4). Buffer 1 above was replaced with buffer 2 (0.5 mg/Me collagen, 66.7 mM NaCl, 6.7 mM KCl, 10 mM HEPES and 4.8 mM CaCl, pH 7.6), and then the perfused liver was extracted. The extracted liver was washed and degraded by using Percoll cushion gradient. The degraded cells were suspended and cultured in Hepatozyme-SFM (Gibco-BRL, USA) culture medium supplemented with 10% FBS and 1% antibiotics and antifungal agent. […] The mounted cells were analyzed using a fluorescence microscope (Zeiss Axioplan 2). […]

A further experiment deals with Akt protein. Briefly: Western blotting of Akt protein phosphorylation in insulin-treated HepG2 cells. The format is cell-based, human. The settings on record: HepG2, PA 24 hours, 100 nM insulin; compared with insulin alone. The method, then: First, male C57BL/6 mice at 8 weeks were divided into the fasted group wherein the mice were fasted for 16 hours and the refed group wherein the mice were fasted for 16 hours and then fed for 4 hours. Each group was sub-divided into the high fat diet group (HFD) and the normal diet group (chow). The liver cells were extracted from the raised mice by the same manner and under the same conditions as described in Example 1. The extracted liver cells were lysed in a lysis buffer containing phosphatase (Sigma-Aldrich, USA) and protease inhibitor (Sigma-Aldrich, USA). Proteins extracted from 2 to 3 mg of the liver tissue were homogenized by using a tissue homogenizer (TissuLyser, Qiagen, USA) for 1.5 minutes at a frequency of 1/30 sec. The homogenized lysate was centrifuged at 12,000 rpm for 15 minutes and the supernatant was obtained. The amount of the extracted protein was quantified by using a protein assay kit (Bio-Rad Laboratories, USA), and at this time BSA was used as a standard sample. 3 mg of the protein was mixed with 6× loading buffer, followed by electrophoresis using 10% SDS-PAGE gel. The electrophoresed protein was transferred onto a polyvinylidene fluoride (PVDF) membrane by using a transfer buffer at 4° C. with 120 V for 1.5 hours. The PVDF membrane on which the protein was transferred was pretreated with a blocking buffer prepared by mixing 5% skim milk with TBS buffer (TBS-T, pH 7.6) supplemented with Tween 20 for 30 minutes, and the membrane was washed with TBS-T. The washed membrane was added with the antibody against Akt (Cell Signaling Technology, USA), Akt(T308) (Cell Signaling Technology, USA), Akt(S473) (Cell Signaling Technology, USA), FOXO3A (Cell Signaling Technology, USA), FOXO3A(S253) (Cell Signaling Technology, USA), GSK-3β (Cell Signaling Technology, USA) or GSK-3β(S9) (Cell Signaling Technology, USA) protein as a primary antibody, followed by reaction at 4° C. for 12 hours. At this time, the antibody against actin (Santa Cruz Biotechnology, USA) protein was used for the control group. Upon completion of the reaction, the secondary antibody corresponding to the primary antibody was added thereto, followed by reaction at room temperature for 30 minutes. The PVDF membrane was washed with TBS-T buffer three times. The washed PVDF membrane was added with ECL solution (Thermo Scientific, USA), followed by image observation.
To investigate the changes in insulin sensitivity when insulin was added to the fatty liver cell model constructed in vitro, the phosphorylations of those proteins that were involved in insulin signaling mechanism were examined. PA was added to the human HepG2 cells prepared in Example 3, followed by reaction for 24 hours. […]
(A western blot detects proteins with antibodies after separation by electrophoresis.)

Data on one compound can be found in patent US20190153051A1, “FUSION PROTEIN OF C2 DOMAIN AND AKT KINASE DOMAIN FRAGMENT AND USE THEREOF” (Gachon University of Industry-Academic Cooperation …, priority 2017, published 2019).

Molecules are shown by their SMILES.

As to `CCCCCCCCCCCCCCCC(=O)O` [PA, Palmitic acid], the intracellular calcium concentration result with human HepG2 cells [1] is given as “significantly increased”. Moreover, the “concentration of calcium in the cytoplasm” value in the experiment on human HepG2 cells [2] is on record as “increased”. Besides, the Akt protein phosphorylation entry with Akt protein is “significantly inhibited”.
